Consider 5 compounds from patent US12187773B2, “Modified GIP peptide analogues” (Antag Therapeutics ApS, priority 2018, dated 2025).

What all share (assay type): cell-based
Experiment [1] has as its target T1, human GIP receptor (Homo sapiens, UniProt P48546).
T1 sequence (P48546 22-466): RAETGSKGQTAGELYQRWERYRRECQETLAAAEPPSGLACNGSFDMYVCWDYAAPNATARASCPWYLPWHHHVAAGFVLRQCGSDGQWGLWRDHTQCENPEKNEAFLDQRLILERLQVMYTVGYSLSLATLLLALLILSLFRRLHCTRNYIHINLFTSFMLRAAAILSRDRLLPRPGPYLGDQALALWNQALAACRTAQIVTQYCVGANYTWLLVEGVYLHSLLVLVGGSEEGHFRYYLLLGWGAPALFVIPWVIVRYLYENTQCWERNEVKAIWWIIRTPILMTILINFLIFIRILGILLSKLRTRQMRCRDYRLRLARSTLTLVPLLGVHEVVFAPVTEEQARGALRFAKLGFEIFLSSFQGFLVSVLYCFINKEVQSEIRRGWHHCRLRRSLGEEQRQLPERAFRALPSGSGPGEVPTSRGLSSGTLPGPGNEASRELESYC
Put plainly: cAMP antagonism (CisBio cAMP Dynamic 2 HTRF assay). On the set-up: pCMV-Script vector. To be noted: Table 1C, CisBio, HEK-293 cells; for IC50: cAMP antagonism, nM (IC50), agonist GIP1-42 at EC50. In short, it runs like this: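 Four-parameter fits of cAMP dose-response gave pIC50. cAMP fall was quantified by HTRF competition, ratio 665/620 nm after 60 min at room temperature, against a cAMP standard curve.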
(In general: TR-FRET usually uses a lanthanide donor and a delayed reading to cut background.)

The target of experiment [2] is T1, human GIP receptor. Description: cAMP accumulation, agonism (DiscoveRx HitHunter cAMP XS assay). The note with it: for cAMP agonism, Emax: Table 1B, DiscoveRx, COS-7 cells; for Emax: COS-7, read-out: cAMP agonism, Emax. Further details: host or cells: COS-7 (transient, calcium phosphate; pCMV-Script vector). In short, it runs like this:
(§1)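 cAMP accumulation measured by HitHunter cAMP XS in COS-7 cells transiently expressing human GIP receptor, after 30 min in HBS with 1 mM IBMX at 37 °C. Antagonists preincubated 10 min before GIP giving 50-80% of maximum, then 20 min more; agonist mode used 30 min ligand exposure.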
In general terms: cAMP levels reflect the balance of adenylyl cyclase and phosphodiesterase activity.

Experiment [3] concerns the target T1, human GIP receptor. Put plainly: cAMP agonism (CisBio cAMP Dynamic 2 HTRF assay). To be noted: for Emax: HEK293, read-out: cAMP agonism, % Efficacy, Table 1C, HEK-293 cells. As for the experimental part: To test for agonistic properties at the GIP receptor, compounds were diluted and added to cells as described above and incubated for 30 min at 37° C. The resulting increase in intracellular cAMP was determined using the CisBio cAMP Dynamic 2 HTRF Assay Kit as described above.

In experiment [4] the target is T1, human GIP receptor. Description: cAMP accumulation, antagonism (DiscoveRx HitHunter cAMP XS assay). Further details: host or cells: COS-7 (transient, calcium phosphate; pCMV-Script vector). The note with it: Table 1B, DiscoveRx; for cAMP antagonism, % inhib: COS-7 cells, % inhibition of Emax; for IC50: cAMP antagonism, nM (IC50), transiently transfected COS-7 cells. In short, it runs like this:
as §1

The structures appear in SMILES notation. Where a SMILES comes first, the peptide text is derived from it. [ ]: non-standard residue; d: D form. The star is where a group is joined. C18 diacid = O=C(O)CCCCCCCCCCCCCCCCC(=O)*; C16 diacid = O=C(O)CCCCCCCCCCCCCCC(=O)*; pGlu = O=C1CC[C@@H](C(=O)O)N1

As to `CC[C@H](C)[C@H](NC(=O)[C@H](CO)NC(=O)[C@H](Cc1ccc(O)cc1)NC(=O)[C@H](CC(=O)O)NC(=O)[C@H](CO)NC(=O)[C@@H](NC(=O)[C@H](Cc1ccccc1)NC(=O)[C@@H](NC(=O)CNC(=O)[C@@H]1CCC(=O)N1)[C@@H](C)O)[C@@H](C)CC)C(=O)N[C@@H](C)C(=O)N[C@@H](CCSC)C(=O)N[C@@H](CC(=O)O)C(=O)N[C@@H](CCCNC(=N)N)C(=O)N[C@H](C(=O)N[C@@H](CCCCNC(=O)CCCCCCCCCCCCCCCCC(=O)O)C(=O)N[C@@H](CCC(N)=O)C(=O)N[C@@H](CCC(N)=O)C(=O)N[C@@H](CC(=O)O)C(=O)N[C@@H](Cc1ccccc1)C(=O)N[C@H](C(=O)N[C@@H](CC(N)=O)C(=O)N[C@@H](Cc1c[nH]c2ccccc12)C(=O)N[C@@H](CC(C)C)C(=O)N[C@@H](CC(C)C)C(=O)N[C@@H](C)C(=O)N[C@@H](CCC(N)=O)C(=O)N[C@@H](CCCNC(=N)N)C(N)=O)C(C)C)[C@@H](C)CC` [AT391] ([pGlu]GTFISDYSIAMDRIK(C18 diacid)QQDFVNWLLAQR-NH2), at human GIP receptor [1], the “cAMP antagonism, % inhib” value was 95%. Besides, on human GIP receptor [2], the “cAMP agonism, Emax” value is “No Agonism”. In addition, the Emax at human GIP receptor [3] is 0%. Further, at human GIP receptor [4], the “cAMP antagonism, % inhib” value is given as 100% and the IC50 came to 10 nM.

On to `CC[C@H](C)[C@H](NC(=O)[C@H](CO)NC(=O)[C@H](Cc1ccc(O)cc1)NC(=O)[C@H](CC(=O)O)NC(=O)[C@H](CO)NC(=O)[C@@H](NC(=O)[C@H](Cc1ccccc1)NC(=O)[C@@H](NC(=O)CNC(=O)CN)[C@@H](C)O)[C@@H](C)CC)C(=O)N[C@@H](C)C(=O)N[C@@H](CCSC)C(=O)N[C@@H](CC(=O)O)C(=O)N[C@@H](CCCNC(=N)N)C(=O)N[C@H](C(=O)N[C@@H](CCCCNC(=O)CCCCCCCCCCCCCCC(=O)O)C(=O)N[C@@H](CCC(N)=O)C(=O)N[C@@H](CCC(N)=O)C(=O)N[C@@H](CC(=O)O)C(=O)N[C@@H](Cc1ccccc1)C(=O)N[C@H](C(=O)N[C@@H](CC(N)=O)C(=O)N[C@@H](Cc1c[nH]c2ccccc12)C(=O)N[C@@H](CC(C)C)C(=O)N[C@@H](CC(C)C)C(=O)N[C@@H](C)C(=O)N[C@@H](CCC(N)=O)C(=O)N[C@@H](CCCNC(=N)N)C(N)=O)C(C)C)[C@@H](C)CC` [AT496] (H-GGTFISDYSIAMDRIK(C16 diacid)QQDFVNWLLAQR-NH2; N-terminus assumed), for which, at human GIP receptor [1], the “cAMP antagonism, % inhib” value is 100% and the IC50 worked out at 39.8 nM. In addition, the “cAMP agonism, Emax” value on human GIP receptor [2] is given as “No Agonism”. Further, the Emax at human GIP receptor [3] stood at 0%. On human GIP receptor [4], the “cAMP antagonism, % inhib” value is 100% and the IC50 is 12 nM.

For `CC[C@H](C)[C@H](NC(=O)[C@H](CO)NC(=O)[C@H](Cc1ccc(O)cc1)NC(=O)[C@H](CC(=O)O)NC(=O)[C@H](CO)NC(=O)[C@@H](NC(=O)[C@H](Cc1ccccc1)NC(=O)[C@@H](NC(=O)CNC(=O)[C@@H](N)CO)[C@@H](C)O)[C@@H](C)CC)C(=O)N[C@@H](C)C(=O)N[C@@H](CCSC)C(=O)N[C@@H](CC(=O)O)C(=O)N[C@@H](CCCNC(=N)N)C(=O)N[C@H](C(=O)N[C@@H](CCCCNC(=O)CCCCCCCCCCCCCCC(=O)O)C(=O)N[C@@H](CCC(N)=O)C(=O)N[C@@H](CCC(N)=O)C(=O)N[C@@H](CC(=O)O)C(=O)N[C@@H](Cc1ccccc1)C(=O)N[C@H](C(=O)N[C@@H](CC(N)=O)C(=O)N[C@@H](Cc1c[nH]c2ccccc12)C(=O)N[C@@H](CC(C)C)C(=O)N[C@@H](CC(C)C)C(=O)N[C@@H](C)C(=O)N[C@@H](CCC(N)=O)C(=O)N[C@@H](CCCNC(=N)N)C(N)=O)C(C)C)[C@@H](C)CC` [AT498] (H-SGTFISDYSIAMDRIK(C16 diacid)QQDFVNWLLAQR-NH2; N-terminus assumed), on human GIP receptor [1], the “cAMP antagonism, % inhib” value came out at 85% and the IC50 was 13.2 nM. The Emax at human GIP receptor [2] amounted to 6%. At human GIP receptor [3] (Table 1C, HEK-293 cells), the “cAMP agonism, % Efficacy” value worked out at 5%. Moreover, on human GIP receptor [4], the “cAMP antagonism, % inhib” value is given as 95% and the IC50 turned out to be 21 nM.

For `CC[C@H](C)[C@H](NC(=O)[C@H](CO)NC(=O)[C@H](Cc1ccc(O)cc1)NC(=O)[C@H](CC(=O)O)NC(=O)[C@H](CO)NC(=O)[C@@H](NC(=O)[C@H](Cc1ccccc1)NC(=O)[C@@H](NC(=O)CNC(=O)[C@@H]1CCCN1)[C@@H](C)O)[C@@H](C)CC)C(=O)N[C@@H](C)C(=O)N[C@@H](CCSC)C(=O)N[C@@H](CC(=O)O)C(=O)N[C@@H](CCCNC(=N)N)C(=O)N[C@H](C(=O)N[C@@H](CCCCNC(=O)CCCCCCCCCCCCCCC(=O)O)C(=O)N[C@@H](CCC(N)=O)C(=O)N[C@@H](CCC(N)=O)C(=O)N[C@@H](CC(=O)O)C(=O)N[C@@H](Cc1ccccc1)C(=O)N[C@H](C(=O)N[C@@H](CC(N)=O)C(=O)N[C@@H](Cc1c[nH]c2ccccc12)C(=O)N[C@@H](CC(C)C)C(=O)N[C@@H](CC(C)C)C(=O)N[C@@H](C)C(=O)N[C@@H](CCC(N)=O)C(=O)N[C@@H](CCCNC(=N)N)C(N)=O)C(C)C)[C@@H](C)CC` [AT500] (H-PGTFISDYSIAMDRIK(C16 diacid)QQDFVNWLLAQR-NH2; N-terminus assumed), at human GIP receptor [1], the “cAMP antagonism, % inhib” value came to 77% and the IC50 was found to be 66.8 nM. Further, the “cAMP agonism, Emax” value at human GIP receptor [2] is on record as “No Agonism”. The Emax on human GIP receptor [3] was 4%. For the same compound, the “cAMP antagonism, % inhib” value on human GIP receptor [4] worked out at 90%.

Consider `CC[C@H](C)[C@H](NC(=O)[C@H](CO)NC(=O)[C@H](Cc1ccc(O)cc1)NC(=O)[C@H](CC(=O)O)NC(=O)[C@H](CO)NC(=O)[C@@H](NC(=O)[C@H](Cc1ccccc1)NC(=O)[C@@H](NC(=O)CNC(=O)CN)[C@@H](C)O)[C@@H](C)CC)C(=O)N[C@@H](C)C(=O)N[C@@H](CCSC)C(=O)N[C@@H](CC(=O)O)C(=O)N[C@@H](CCCNC(=N)N)C(=O)N[C@H](C(=O)N[C@@H](CCCCNC(=O)CC[C@H](NC(=O)CCCCCCCCCCCCCCC(=O)O)C(=O)O)C(=O)N[C@@H](CCC(N)=O)C(=O)N[C@@H](CCC(N)=O)C(=O)N[C@@H](CC(=O)O)C(=O)N[C@@H](Cc1ccccc1)C(=O)N[C@H](C(=O)N[C@@H](CC(N)=O)C(=O)N[C@@H](Cc1c[nH]c2ccccc12)C(=O)N[C@@H](CC(C)C)C(=O)N[C@@H](CC(C)C)C(=O)N[C@@H](C)C(=O)N[C@@H](CCC(N)=O)C(=O)N[C@@H](CCCNC(=N)N)C(N)=O)C(C)C)[C@@H](C)CC` [AT502] (HELM PEPTIDE1{G.G.T.F.I.S.D.Y.S.I.A.M.D.R.I.K.Q.Q.D.F.V.N.W.L.L.A.Q.R.[am]}|PEPTIDE2{[O=C(O)CCCCCCCCCCCCCCC(=O)[*:2]].[gGlu]}$PEPTIDE1,PEPTIDE2,16:R3-2:R2$$$V2.0; N-terminus assumed), for which the “cAMP antagonism, % inhib” value at human GIP receptor [1] was 65%; at human GIP receptor [4], 85%. The Emax was 5% at human GIP receptor [2] and 13% on human GIP receptor [3]. Moreover, on human GIP receptor [4], the IC50 came out at 52 nM.

What is called IC50 is the point on the concentration scale where inhibition reaches its midpoint.
